# Where “and” joins values, the source holds several entries; their conditions need not be identical. Equal entries are not always repeated. Where two headings read alike, the source gives them in different places.
# Test: Pharmacokinetics after i.v. and p.o. administration to rats
# Type: in vivo, Sprague–Dawley rats
# Conditions: for half-life at 4 h: read-out: half-life (min) (elimination phase)
# Method: Based on both its biological profile, showing a good efficacy in primary and secondary assays, and preliminary in vitro ADME properties, potentiator 39 was further evaluated in in vivo studies. […]
# Male Sprague–Dawley rats, 2 month old and weighing 175–200 g (Charles River, Calco, Italy), were used. Animals were group-housed in ventilated cages and had free access to food and water. They were maintained under a 12 h light/dark cycle (lights on at 8:00 am) at a controlled temperature (21 ± 1 °C) and relative humidity (55 ± 10%). All experiments were carried out in accordance with the guidelines established by the European Communities Council Directive (Directive 2010/63/EU of September 22, 2010) and approved by the National Council on Animal Care of the Italian Ministry of Health. All efforts were made to minimize animal suffering and to use the minimal number of animals required to produce reliable results.
# […] PEG400/Tween 80/saline solution was used as a vehicle at 10/10/80% in volume, respectively. Three animals per dose were treated. Blood samples at 0, 15, 30, 60, 90, 120, 240, and 360 min after administration were collected for p.o. arm. Blood samples at 0, 5, 15, 30, 60, 90, 120, and 240 min after administration were collected for i.v. arm. Plasma was separated from blood by centrifugation for 15 min at 3500 rpm at 4 °C, collected in an Eppendorf tube, and frozen (−80 °C). Control animals treated with vehicle only were also included in the experimental protocol.
# Plasma samples were centrifuged at 21,100g for 15 min at 4 °C, while homogenized lung samples were vigorously whirled. An aliquot of each sample was extracted (1:3) with cold CH3CN containing 200 nM of an appropriate internal standard being a close analogue of the parent compound. A calibration curve was prepared in both blank mouse plasma and naïve lung homogenate over a 1 nM to 10 μM range. Three quality controls were prepared by spiking the parent compound in both blank mouse plasma and naïve lung homogenate to 20, 200, and 2000 nM as final concentrations. The calibrators and quality controls were extracted (1:3) with the same extraction solution as the plasma and lung samples. The plasma and lung samples, the calibrators, and quality controls were centrifuged at 3270g for 15 min at 4 °C. The supernatants were further diluted (1:1) with H2O and analyzed by LC/MS–MS on a Waters ACQUITY UPLC/MS TQD system consisting of a TQD mass spectrometer equipped with an electrospray ionization interface and a photodiode array eλ detector. Electrospray ionization was applied in the positive mode. Compound-dependent parameters such as MRM transitions and collision energy were developed for the parent compound and the internal standard. The mobile phase was H2O + 0.1% HCOOH (A) and CH3CN + 0.1% HCOOH (B) at a flow rate of 0.5 mL/min. For plasma samples, the analyses were run on an ACQUITY UPLC BEH C18 (50 × 2.1 mm ID, particle size 1.7 μm) with a VanGuard BEH C18 precolumn (5 × 2.1 mm ID, particle size 1.7 μm) at 40 °C. A linear gradient was applied starting at 30% B with an initial hold for 0.2 min and then 30–100% B in 2 min. For lung samples, the analyses were run on an ACQUITY UPLC BEH C18 (100 × 2.1 mm ID, particle size 1.7 μm) with a VanGuard BEH C18 precolumn (5 × 2.1 mm ID, particle size 1.7 μm) at 40 °C. A linear gradient was applied starting at 30% B with an initial hold for 0.2 min and then 30–100% B in 6 min. All samples (plasma and lung samples, calibrators, and quality controls) were quantified by MRM peak area response factor in order to determine the levels of the parent compound in plasma and lung. The concentrations versus time data were plotted and the profiles were fitted using PK Solutions Excel Application (Summit Research Service, USA) in order to determine the pharmacokinetic parameters.
# [1] = male, Sprague-Dawley, rat, iv, 3 mg/kg, plasma
# [2] = male, Sprague-Dawley, rat, plasma, iv, 3 mg/kg
# [3] = male, Sprague-Dawley, rat, plasma, po, 10 mg/kg
# [4] = male, Sprague-Dawley, rat, po, 10 mg/kg, plasma
compound,measurement,setting,value
"Cc1ccc(F)c2[nH]c3c(c12)CN(C(=O)c1cc(C(F)(F)F)[nH]n1)[C@H](C)C3 [Compound 39, (R)-(6-Fluoro-3,9-dimethyl-1,3,4,5-tetrahydro-2H-pyrido[4,3-b]indol-2-yl)-(5-(trifluoromethyl)-1H-pyrazol-3-yl)methanone]",Cmax,[1],2790 ng/mL
same,Cmax at 4 h,[1],7.3 µM
same,AUC,[2],2320 ng·h/mL and 6.1 µM·h
same,Tmax at 4 h,[2],5 min
same,Vd at 4 h,[2],2.39 L/kg
same,clearance at 4 h,[2],19 mL/min/kg
same,half-life at 4 h,[2],89 min
same,bioavailability,"male, Sprague-Dawley, rat, plasma, oral, p.o. 10 mg/kg versus i.v. 3 mg/kg, time interval 0–4 h",~30%
same,AUC,[3],2330 ng·h/mL
same,half-life at 4 h,[3],212 min
same,concentration at 6 h,"male, Sprague-Dawley, rat, plasma, po, 10 mg/kg, read-out: plasma level at 6 h postadministration",> 450 ng/mL and ~1.2 µM
same,Tmax,"male, Sprague-Dawley, rat, plasma, po, 10 mg/kg, read-out: time of maximal plasma concentration",2 h
same,AUC,"male, Sprague-Dawley, rat, plasma, po, 10 mg/kg, time interval 0–4 h",6.1 µM·h
same,bioavailability at 4 h,"male, Sprague-Dawley, rat, plasma, po, p.o. 10 mg/kg versus i.v. 3 mg/kg, time interval 0–4 h",30%
same,Cmax,[4],769 ng/mL
same,Cmax at 4 h,[4],2 µM
same,Tmax,"p.o., 10 mg/kg",2 h
